# Data taken from patent publication US4461907A, “Amino-substituted flavans useful as anti-viral agents” (priority 1978, dated 1984).
# Read-outs that look alike come from different tables or passages of the source.
# Columns and labels:
# rhinovirus serotype 1B = test: plaque reduction test; type: cell-based; conditions: Enterovirus
# Excerpt: Plaque suppression is proportional to compound concentration.
# rhinoviruses [1] = test: activity in tests (novel compounds)
# in vivo = conditions: mouse, po
# viral hepatitis = conditions: Lancet;2;1153 (1977); cited from earlier work
# rhinoviruses [2] = test: in vitro tests in culture
# [3] = rhinovirus serotype 1B, plaque reduction test, read-out: ED50 (the source's name)
EC50 (rhinovirus serotype 1B; [3]) [nM],SMILES,other results
64,"Clc1ccc(C2CCc3ccccc3O2)c(Cl)c1 (stereo not drawn) [2',4'-dichloro-, 2',4'-Dichloro-flavan]",–
48,"Clc1cccc(Cl)c1C1CCc2ccccc2O1 (stereo not drawn) [2',6'-dichloro-, 2',6'-Dichloroflavan]",–
112,"Clc1ccccc1C1CCc2ccccc2O1 (stereo not drawn) [2'-chloro-, 2'-chloroflavan]",–
780,"Oc1ccccc1C1CCc2ccccc2O1 (stereo not drawn) [2'-hydroxyl-, 2'-hydroxyflavan]",–
15,"Cc1ccccc1C1CCc2ccccc2O1 (stereo not drawn) [2'-methyl-, 2'-Methylflavan]",–
17,"Cc1ccc2c(c1)CCC(c1ccc(Cl)c(Cl)c1)O2 (stereo not drawn) [3',4'-dichloro-6-methyl-, 3',4'-Dichloro-6-methylflavan]",activity in tests (rhinoviruses [1]): highest activity in tests
40,"Clc1ccc(C2CCc3ccccc3O2)cc1Cl (stereo not drawn) [3',4'-dichloro-, 3',4'-Dichloro-flavan]",–
270,"Clc1cccc(C2CCc3ccccc3O2)c1 (stereo not drawn) [3'-chloro-, 3'-chloroflavan]",–
125,"COc1cccc(C2CCc3ccccc3O2)c1 (stereo not drawn) [3'-methoxyl-, 3'-methoxyflavan]",–
290,"Cc1cccc(C2CCc3ccccc3O2)c1 (stereo not drawn) [3'-methyl-, 3'-methylflavan]",–
1400,"FC(F)(F)c1cccc(C2CCc3ccccc3O2)c1 (stereo not drawn) [3'-trifluoromethyl, 3'-trifluoromethyl-flavan]",–
> 10,"N#Cc1ccc(C2CCc3cc(C#N)ccc3O2)cc1 (stereo not drawn) [4',6-cyano, 4',6-dicyanoflavan]",activity in tests (rhinoviruses [1]): highest activity in tests
8,"Brc1ccc(C2CCc3cc(Br)ccc3O2)cc1 (stereo not drawn) [4',6-dibromo-, 4',6-dibromoflavan]",activity in tests (rhinoviruses [1]): highest activity in tests
–,"Clc1ccc(C2CCc3cc(Cl)ccc3O2)cc1 (stereo not drawn) [4',6-dichloro-, 4',6-Dichloroflavan]",concentration at 1 h (in vivo; 30 mg/kg): 2 to 4 µM; concentration at 1 h (in vivo; 100 mg/kg): 10 µM
68,"Fc1ccc(C2CCc3cc(F)ccc3O2)cc1 (stereo not drawn) [4',6-difluoro-, 4'-6-difluoro]",–
43,"Ic1ccc(C2CCc3cc(I)ccc3O2)cc1 (stereo not drawn) [4',6-diiodo-, 4',6-diiodo]",–
42,"Cc1ccc(C2CCc3cc(C)ccc3O2)cc1 (stereo not drawn) [4',6-dimethyl-, 4',6-Dimethylflavan]",–
48,"Clc1ccc(C2CCc3ccc(Cl)cc3O2)cc1 (stereo not drawn) [4',7-dichloro-, 4',7-Dichloroflavan]",–
265,"CN(C)c1ccc(C2CCc3ccccc3O2)cc1 (stereo not drawn) [4'-N,N--dimethylamino-, 4'-(N,N-dimethylamino)flavan]",–
50,"Nc1ccc(C2CCc3ccccc3O2)cc1 (stereo not drawn) [4'-amino-, 4'-aminoflavan]",–
21,"Clc1ccc2c(c1)CCC(c1ccc(Br)cc1)O2 (stereo not drawn) [4'-bromo-6-chloro, 4'-bromo-6-chloro-flavan]",–
13,"Fc1ccc2c(c1)CCC(c1ccc(Br)cc1)O2 (stereo not drawn) [4'-bromo-6-fluoro-, 6-fluoro-4'-bromoflavan]",activity in tests (rhinoviruses [1]): highest activity in tests
76,Brc1ccc(C2CCc3cc(I)ccc3O2)cc1 (stereo not drawn) [4'-bromo-6-iodo],–
36,"Brc1ccc(C2CCc3ccccc3O2)cc1 (stereo not drawn) [4'-bromo-, 4'-Bromoflavan]",–
6,"N#Cc1ccc2c(c1)CCC(c1ccc(Cl)cc1)O2 (stereo not drawn) [4'-chloro-6-cyano, 6-cyano-4'-chloroflavan]",activity in tests (rhinoviruses [1]): highest activity in tests
52,"CCc1ccc2c(c1)CCC(c1ccc(Cl)cc1)O2 (stereo not drawn) [4'-chloro-6-ethyl-, 4'-chloro-6-ethyl-flavan]",–
15,"Fc1ccc2c(c1)CCC(c1ccc(Cl)cc1)O2 (stereo not drawn) [4'-chloro-6-fluoro-, 6-fluoro-4'-chloroflavan]",activity in tests (rhinoviruses [1]): highest activity in tests
15,"Clc1ccc(C2CCc3cc(I)ccc3O2)cc1 (stereo not drawn) [4'-chloro-6-iodo-, 6-iodo-4'-chloroflavan]",activity in tests (rhinoviruses [1]): highest activity in tests

EC50 (rhinovirus serotype 1B; [3]) [nM],SMILES,other results
15.5,"Cc1ccc2c(c1)OC(c1ccc(Cl)cc1)CC2 (stereo not drawn) [4'-chloro-7-methyl-, 4'-chloro-7-methyl-flavan]",activity in tests (rhinoviruses [1]): highest activity in tests
–,"Clc1ccc(C2CCc3ccccc3O2)cc1 (stereo not drawn) [4'-chloro-, 4'-chloroflavan]",EC50 (rhinovirus serotype 1B; read-out: ED50): 40 nM
28,"Fc1ccc(C2CCc3cc(I)ccc3O2)cc1 (stereo not drawn) [4'-fluoro-6-iodo, 6-iodo-4'-fluoro]",–
17.5,"Fc1ccc(C2CCc3ccccc3O2)cc1 (stereo not drawn) [4'-fluoro-, 4'-flouroflavan]",activity in tests (rhinoviruses [1]): highest activity in tests
60,"Oc1ccc(C2CCc3ccccc3O2)cc1 (stereo not drawn) [4'-hydroxy-, 4'-hydroxyflavan]",–
13,"COc1ccc(C2CCc3cc(Cl)ccc3O2)cc1 (stereo not drawn) [4'-methoxyl-6-chloro-, 6-Chloro-4'-methoxy-flavan]",activity in tests (rhinoviruses [1]): highest activity in tests
100,"COc1ccc(C2CCc3cc(C)ccc3O2)cc1 (stereo not drawn) [4'-methoxyl-6-methyl-, 4'-Methoxy-6-methyl-flavan]",–
70,"COc1ccc(C2CCc3ccccc3O2)cc1 (stereo not drawn) [4'-methoxyl-, 4'-methoxyflavan]",–
2.3,"Cc1ccc(C2CCc3cc(Cl)ccc3O2)cc1 (stereo not drawn) [4'-methyl-6-chloro-, 6-Chloro-4'-methyl-flavan]",activity in tests (rhinoviruses [1]): highest activity in tests
83,"Cc1ccc(C2CCc3ccc(Cl)cc3O2)cc1 (stereo not drawn) [4'-methyl-7-chloro-, 7-Chloro-4'-methyl-flavan]",–
12.5,"Cc1ccc(C2CCc3ccccc3O2)cc1 (stereo not drawn) [4'-methyl-, 4'-methylflavan]",activity in tests (rhinoviruses [1]): highest activity in tests
5,"Clc1ccc(C2CCc3cc(Br)ccc3O2)cc1 (stereo not drawn) [6-bromo-4'-chloro-, 6-bromo-4'-chloro-flavan]",–
29,Fc1ccc(C2CCc3cc(Br)ccc3O2)cc1 (stereo not drawn) [6-bromo-4'-fluoro],–
21,"Brc1ccc2c(c1)CCC(c1ccc(I)cc1)O2 (stereo not drawn) [6-bromo-4'-iodo-, 6-bromo-4'-iodo]",–
18,"Cc1ccc(C2CCc3cc(Br)ccc3O2)cc1 (stereo not drawn) [6-bromo-4'-methyl-, 6-bromo-4'-methylflavan]",–
16,"Fc1ccc(C2CCc3cc(Cl)ccc3O2)cc1 (stereo not drawn) [6-chloro-4'-fluoro, 6-chloro-4'-fluoro-flavan]",activity in tests (rhinoviruses [1]): highest activity in tests
36,"CC(C)c1ccc(C2CCc3cc(Cl)ccc3O2)cc1 (stereo not drawn) [6-chloro-4-(1-methylethyl), 6-chloro 4'-isopropylflavan]",–
–,OC1Cc2ccccc2OC1c1ccccc1 (stereo not drawn) [-3-hydroxy flavan],effect against viral hepatitis (viral hepatitis): without success
19,"Brc1ccc2c(c1)CCC(c1ccccc1)O2 (stereo not drawn) [Example 6-bromo-, 6-bromo flavan]",–
50,"Clc1ccc2c(c1)CCC(c1ccccc1)O2 (stereo not drawn) [Example 6-chloro-, 6-chloroflavan]",–
38,"N#Cc1ccc2c(c1)CCC(c1ccccc1)O2 (stereo not drawn) [Example 6-cyano-, 6-cyano]",–
20,"Fc1ccc2c(c1)CCC(c1ccccc1)O2 (stereo not drawn) [Example 6-fluoro-, 6-fluoro flavan]",–
58,"Ic1ccc2c(c1)CCC(c1ccccc1)O2 (stereo not drawn) [Example 6-iodo-, 6-iodo]",–
12.5,"COc1ccc2c(c1)CCC(c1ccccc1)O2 (stereo not drawn) [Example 6-methoxyl-, 6-methoxyflavan]",activity in tests (rhinoviruses [1]): highest activity in tests
150,"Cc1ccc2c(c1)CCC(c1ccccc1)O2 (stereo not drawn) [Example 6-methyl-, 6-methylflavan]",–
70,"Clc1ccc2c(c1)OC(c1ccccc1)CC2 (stereo not drawn) [Example 7-chloro-, 7-Chloroflavan]",–
46,"c1ccc(C2CCc3ccccc3O2)cc1 (stereo not drawn) [flavan, Flavan]",activity against rhinoviruses (rhinoviruses [2]): quite good activity against rhinoviruses

SMILES,EC50 (rhinovirus serotype 1B; [3]) [nM],other results
CC(=O)Oc1ccc(C2CCc3ccccc3O2)cc1 (stereo not drawn) [4'-acetoxyl-],67,–
